This note sets out measurements from publication doi:10.1101/2023.04.05.535794v1 (biorxiv, 2023).

Holding throughout (test): fluorogenic peptide-amc hydrolysis, dose-response over […] h
What all share (type): biochemical

Assay [1] deals with T1, Tv20S β2 (T. vaginalis 20S proteasome, β2 site) (Trichomonas vaginalis, UniProt A2F2T6).
T1 sequence (A2F2T6 32-275): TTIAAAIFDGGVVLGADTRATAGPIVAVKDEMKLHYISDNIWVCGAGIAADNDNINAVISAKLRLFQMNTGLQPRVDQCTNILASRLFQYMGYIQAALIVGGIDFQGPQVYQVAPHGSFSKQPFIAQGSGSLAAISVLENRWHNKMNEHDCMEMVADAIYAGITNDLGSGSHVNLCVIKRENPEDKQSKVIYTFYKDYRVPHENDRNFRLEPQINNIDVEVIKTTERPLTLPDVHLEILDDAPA

In assay [2] the target is T2, Tv20S β5 (T. vaginalis 20S proteasome, β5 site) (Trichomonas vaginalis, UniProt A2DD57).
T2 sequence (A2DD57 54-256): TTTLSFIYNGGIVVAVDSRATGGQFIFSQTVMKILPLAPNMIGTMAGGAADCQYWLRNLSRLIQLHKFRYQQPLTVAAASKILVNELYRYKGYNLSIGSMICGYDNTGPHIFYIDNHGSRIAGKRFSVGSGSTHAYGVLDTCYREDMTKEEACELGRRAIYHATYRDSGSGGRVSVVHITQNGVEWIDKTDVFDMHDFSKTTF

Assay [3] deals with T3, Tv20S β1 (T. vaginalis 20S proteasome, β1 site) (Trichomonas vaginalis, UniProt A2E7Z2).
T3 sequence (A2E7Z2 13-216): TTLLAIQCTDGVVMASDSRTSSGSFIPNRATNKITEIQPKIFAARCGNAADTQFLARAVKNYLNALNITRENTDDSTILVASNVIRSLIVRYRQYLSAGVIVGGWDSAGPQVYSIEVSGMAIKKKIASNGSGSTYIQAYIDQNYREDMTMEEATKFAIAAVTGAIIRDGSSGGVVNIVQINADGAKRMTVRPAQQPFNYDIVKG

For orientation: IC50 means the concentration needed to halve the response being measured. As for `CC(C)C[C@H](NC(=O)[C@H](CCc1ccccc1)NC(=O)CN1CCOCC1)C(=O)N[C@@H](Cc1ccccc1)C(=O)N[C@@H](CC(C)C)C(=O)[C@@]1(C)CO1` [carfilzomib], the IC50 in assay [1] is 372 ± 92.1 nM; in assay [2], 78.4 ± 17.3 nM.
With `CC(C)C[C@H](NC(=O)CNC(=O)c1cc(Cl)ccc1Cl)B(O)O` [ixazomib], the IC50 in assay [3] worked out at 270 ± 97.1 nM; in assay [2], 34.1 ± 5.4 nM.
